Results: ChEMBL document CHEMBL5634123, “Design and synthesis of 1H-benzo[d]imidazole selective HDAC6 inhibitors with potential therapy for multiple myeloma” (Eur J Med Chem, 2023)
The source made the active and inactive calls. The calls are words filed in the database; no cut-off is given here.

How the values were obtained:
[1] = system: HCT-116; assay: Cytotoxicity against human HCT-116 cells assessed as inhibition of cell viability incubated for 24 hrs by CCK8 assay; assay type: functional, cell-based; conditions: HCT-116, 24 h
[2] = system: HCCLM3; assay: Cytotoxicity against human HCCLM3 cells assessed as inhibition of cell viability incubated for 24 hrs by CCK8 assay; assay type: functional, cell-based; conditions: HCCLM3, 24 h
[3] = system: SGC-7901; assay: Cytotoxicity against human SGC-7901 cells assessed as inhibition of cell viability incubated for 24 hrs by CCK8 assay; assay type: functional, cell-based; conditions: SGC-7901, 24 h
[4] = target: Histone deacetylase 2 (Homo sapiens, UniProt Q92769); assay: Inhibition of HDAC2 (unknown origin) preincubated for 10 mins followed by substrate addition by fluorescence based assay
[5] = target: Histone deacetylase 3 (Homo sapiens, UniProt O15379); assay: Inhibition of HDAC3 (unknown origin) preincubated for 10 mins followed by substrate addition by fluorescence based assay
[6] = target: Histone deacetylase 4 (Homo sapiens, UniProt P56524); assay: Inhibition of HDAC4 (unknown origin) preincubated for 10 mins followed by substrate addition by fluorescence based assay
[7] = target: T1, Protein deacetylase HDAC6 (Homo sapiens) (UniProt Q9UBN7); assay: Inhibition of HDAC6 in human RPMI-8226 cells assessed as increase in Ac-H3 expression at 2.5 uM incubated for 24 hrs by Western blot analysis; assay type: cell-based
T1 sequence (whole entry): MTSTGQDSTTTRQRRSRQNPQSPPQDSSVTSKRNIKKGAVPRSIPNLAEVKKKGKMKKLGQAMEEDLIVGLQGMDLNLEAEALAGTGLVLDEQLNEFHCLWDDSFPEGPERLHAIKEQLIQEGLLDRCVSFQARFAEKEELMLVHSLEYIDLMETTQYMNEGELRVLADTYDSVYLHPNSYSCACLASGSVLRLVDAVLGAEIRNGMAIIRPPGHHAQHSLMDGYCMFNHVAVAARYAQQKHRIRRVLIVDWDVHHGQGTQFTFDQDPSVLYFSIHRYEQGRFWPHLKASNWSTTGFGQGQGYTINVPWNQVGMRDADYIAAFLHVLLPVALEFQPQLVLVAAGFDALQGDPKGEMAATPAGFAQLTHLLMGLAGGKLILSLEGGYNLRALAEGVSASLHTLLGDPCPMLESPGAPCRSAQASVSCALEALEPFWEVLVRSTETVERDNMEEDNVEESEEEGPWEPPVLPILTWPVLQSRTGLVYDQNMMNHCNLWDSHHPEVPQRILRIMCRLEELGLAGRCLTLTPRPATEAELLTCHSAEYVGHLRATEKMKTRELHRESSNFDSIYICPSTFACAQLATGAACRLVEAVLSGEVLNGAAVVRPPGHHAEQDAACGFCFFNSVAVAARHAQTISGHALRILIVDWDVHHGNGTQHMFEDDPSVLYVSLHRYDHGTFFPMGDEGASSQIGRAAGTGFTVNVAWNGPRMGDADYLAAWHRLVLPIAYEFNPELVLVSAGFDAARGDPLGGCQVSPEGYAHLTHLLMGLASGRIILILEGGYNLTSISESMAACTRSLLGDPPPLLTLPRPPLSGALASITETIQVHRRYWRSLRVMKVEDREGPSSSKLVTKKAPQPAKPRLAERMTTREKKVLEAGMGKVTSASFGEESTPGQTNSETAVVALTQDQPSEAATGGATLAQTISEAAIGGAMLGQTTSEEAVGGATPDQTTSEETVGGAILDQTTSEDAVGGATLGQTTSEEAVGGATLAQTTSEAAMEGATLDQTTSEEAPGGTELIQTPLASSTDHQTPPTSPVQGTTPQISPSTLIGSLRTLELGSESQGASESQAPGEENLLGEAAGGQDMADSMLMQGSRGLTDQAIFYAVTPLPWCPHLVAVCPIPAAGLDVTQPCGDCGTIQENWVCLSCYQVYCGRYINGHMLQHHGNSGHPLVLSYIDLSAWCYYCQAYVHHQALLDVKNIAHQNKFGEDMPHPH

[8] = system: RPMI-8226; assay: Effect on Ac-H4 expression in human RPMI-8226 cells at 0.1 to 2.5 uM incubated for 24 hrs by Western blot analysis; assay type: functional, cell-based; conditions: dose 0.1-2.5 µM
[9] = system: RPMI-8226; assay: Induction of cell cycle arrest at G1 phase in human RPMI-8226 cells at 0.1 uM incubated for 24 hrs by PI staining based flow cytometry (reference value: 19.2 %); assay type: functional
[10] = system: RPMI-8226; assay: Induction of cell cycle arrest at S phase in human RPMI-8226 cells at 0.1 uM incubated for 24 hrs by PI staining based flow cytometry (reference value: 58.5 %); assay type: functional
[11] = system: RPMI-8226; assay: Induction of apoptosis in human RPMI-8226 cells assessed as viable cells at 0.1 uM incubated for 24 hrs by Annexin V-FITC/PI staining based flow cytometry (reference value: 90.98 %); assay type: functional; conditions: read-out: Activity
[12] = system: RPMI-8226; assay: Induction of apoptosis in human RPMI-8226 cells assessed as early apoptotic cells at 0.5 uM incubated for 24 hrs by Annexin V-FITC/PI staining based flow cytometry (reference value: 5.34 %); assay type: functional
[13] = system: RPMI-8226; assay: Induction of apoptosis in human RPMI-8226 cells assessed as necrotic cells at 0.5 uM incubated for 24 hrs by Annexin V-FITC/PI staining based flow cytometry (reference value: 0.90 %); assay type: functional
[14] = system: RPMI-8226; assay: Induction of apoptosis in human RPMI-8226 cells assessed as decrease in […] expression at 0.1 to 2.5 uM incubated for 24 hrs by Western blot analysis; assay type: functional, cell-based; conditions: dose 0.1-2.5 µM
[15] = system: RPMI-8226; assay: Induction of apoptosis in human RPMI-8226 cells assessed as increase in Bax expression at 0.1 to 2.5 uM incubated for 24 hrs by Western blot analysis; assay type: functional, cell-based; conditions: dose 0.1-2.5 µM
[16] = system: RPMI-8226; assay: Induction of apoptosis in human RPMI-8226 cells assessed as increase in p53 expression at 0.1 to 2.5 uM incubated for 24 hrs by Western blot analysis; assay type: functional, cell-based; conditions: dose 0.1-2.5 µM
[17] = Volume of distribution at steady state in mouse at 1 mg/kg, iv; assay type: ADME, organism-based; conditions: in vivo, read-out: Vdss
[18] = AUC (0 to t) in mouse at 10 mg/kg, po; assay type: ADME, organism-based; conditions: in vivo
[19] = Oral bioavailability in mouse at 10 mg/kg; assay type: ADME, organism-based; conditions: in vivo
[20] = Toxicity in Balb/c nude mouse xenografted with human RPMI-8226 cells assessed as adverse effect on liver at 10 to 40 mg/kg, po qd for 21 days administered consecutively by H and E staining based analysis; assay type: organism-based; conditions: in vivo, 504 h, dose 10-40 mg/kg, time 21 day
[21] = Toxicity in Balb/c nude mouse xenografted with human RPMI-8226 cells assessed as adverse effect on lung at 10 to 40 mg/kg, po qd for 21 days administered consecutively by H and E staining based analysis; assay type: organism-based; conditions: in vivo, 504 h, dose 10-40 mg/kg, time 21 day
[22] = Toxicity in Balb/c nude mouse xenografted with human RPMI-8226 cells assessed as adverse effect on serum total protein level at 10 to 40 mg/kg, po qd for 21 days administered consecutively; assay type: organism-based; conditions: in vivo, 504 h, dose 10-40 mg/kg, time 21 day
[23] = system: MDA-MB-468; assay: cells; conditions: Homo sapiens, MDA-MB-468, 24 h

Chain of Histone deacetylase 4 (P56524 whole entry): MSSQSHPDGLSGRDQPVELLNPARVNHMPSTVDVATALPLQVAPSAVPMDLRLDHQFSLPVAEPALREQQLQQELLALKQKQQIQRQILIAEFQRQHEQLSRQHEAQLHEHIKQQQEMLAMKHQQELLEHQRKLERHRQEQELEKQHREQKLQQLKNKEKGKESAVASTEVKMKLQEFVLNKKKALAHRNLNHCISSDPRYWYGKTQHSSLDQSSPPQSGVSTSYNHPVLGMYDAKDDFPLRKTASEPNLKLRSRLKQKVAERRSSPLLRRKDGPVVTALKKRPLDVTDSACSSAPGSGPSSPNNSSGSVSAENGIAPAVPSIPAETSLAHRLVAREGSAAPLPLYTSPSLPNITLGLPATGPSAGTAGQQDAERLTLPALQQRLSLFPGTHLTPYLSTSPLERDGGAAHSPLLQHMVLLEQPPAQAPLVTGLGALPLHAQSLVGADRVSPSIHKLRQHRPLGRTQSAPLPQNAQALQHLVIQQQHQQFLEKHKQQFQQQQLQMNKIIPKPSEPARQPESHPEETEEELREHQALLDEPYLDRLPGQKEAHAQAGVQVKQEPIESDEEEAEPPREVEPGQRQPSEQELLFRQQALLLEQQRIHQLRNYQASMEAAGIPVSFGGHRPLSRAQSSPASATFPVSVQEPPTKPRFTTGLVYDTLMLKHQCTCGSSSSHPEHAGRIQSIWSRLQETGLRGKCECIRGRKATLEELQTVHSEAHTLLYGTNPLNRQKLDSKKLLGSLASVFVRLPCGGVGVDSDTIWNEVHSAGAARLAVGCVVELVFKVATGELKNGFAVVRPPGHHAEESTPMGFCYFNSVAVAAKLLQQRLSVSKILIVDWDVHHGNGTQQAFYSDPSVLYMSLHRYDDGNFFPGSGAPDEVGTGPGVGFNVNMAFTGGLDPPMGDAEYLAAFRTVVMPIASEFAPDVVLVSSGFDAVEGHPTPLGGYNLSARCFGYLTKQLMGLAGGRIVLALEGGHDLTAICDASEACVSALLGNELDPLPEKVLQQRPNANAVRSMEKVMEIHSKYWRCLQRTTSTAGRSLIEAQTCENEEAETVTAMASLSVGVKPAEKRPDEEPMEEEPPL
Chain of Histone deacetylase 3 (O15379 whole entry): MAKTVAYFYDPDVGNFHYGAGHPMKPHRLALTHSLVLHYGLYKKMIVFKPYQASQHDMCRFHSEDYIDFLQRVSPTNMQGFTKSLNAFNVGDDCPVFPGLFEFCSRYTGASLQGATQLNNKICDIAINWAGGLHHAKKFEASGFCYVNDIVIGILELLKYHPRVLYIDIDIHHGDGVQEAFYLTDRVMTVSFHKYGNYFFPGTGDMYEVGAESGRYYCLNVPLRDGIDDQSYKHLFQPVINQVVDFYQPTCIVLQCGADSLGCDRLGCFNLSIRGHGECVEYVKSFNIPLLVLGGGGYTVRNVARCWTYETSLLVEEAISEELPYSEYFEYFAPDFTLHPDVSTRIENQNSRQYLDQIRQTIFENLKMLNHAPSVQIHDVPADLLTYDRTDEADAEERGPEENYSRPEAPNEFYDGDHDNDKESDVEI
Chain of Histone deacetylase 2 (Q92769 whole entry): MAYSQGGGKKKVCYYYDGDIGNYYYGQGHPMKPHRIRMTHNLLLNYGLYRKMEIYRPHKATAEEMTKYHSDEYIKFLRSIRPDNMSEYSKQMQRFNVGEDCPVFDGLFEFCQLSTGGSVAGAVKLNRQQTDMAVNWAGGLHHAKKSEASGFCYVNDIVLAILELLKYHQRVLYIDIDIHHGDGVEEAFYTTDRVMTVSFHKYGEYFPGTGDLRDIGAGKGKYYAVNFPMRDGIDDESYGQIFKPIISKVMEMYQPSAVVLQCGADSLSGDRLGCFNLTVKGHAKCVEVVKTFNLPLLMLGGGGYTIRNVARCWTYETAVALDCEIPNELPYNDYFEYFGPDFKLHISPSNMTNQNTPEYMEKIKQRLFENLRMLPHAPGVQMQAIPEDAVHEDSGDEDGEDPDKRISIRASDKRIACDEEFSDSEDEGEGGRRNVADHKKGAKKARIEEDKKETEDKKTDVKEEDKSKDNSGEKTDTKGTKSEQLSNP

Q: Which IC50 [1] does the source give for `Cn1c([C@@H](Cc2ccccc2)NCc2ccccc2)nc2cc(C(=O)NO)ccc21` here?
A: 15200 nM

Q: And the IC50 [2]?
A: > 50000 nM

Q: And the IC50 [3]?
A: > 50000 nM

Q: What about the IC50 [4] of the same molecule?
A: 1790 nM

Q: And the IC50 [5]?
A: 1840 nM

Q: What about the IC50 [6] of the same molecule?
A: 1930 nM

Q: What about the inhibition [7] of the same molecule?
A: Active

Q: And the Activity [8]?
A: inactive

Q: What about the Activity [9] of the same molecule?
A: 18.2%

Q: What about the Activity [10] of the same molecule?
A: 54%

Q: What about the viability at 0.1 µM [11] of the same molecule?
A: 82.5%

Q: What about the Activity [12] of the same molecule?
A: 14.04%

Q: What about the Activity [13] of the same molecule?
A: 0.53%

Q: And the Activity [14]?
A: Active

Q: And the Activity [15]?
A: Active

Q: And the Activity [16]?
A: Active

Q: And the Vd [17]?
A: 2.29 L/kg

Q: And the AUC(0-t) [18]?
A: 52.1 ng·h/mL

Q: What about the bioavailability [19] of the same molecule?
A: 4.6%

Q: What about the Activity [20] of the same molecule?
A: Non-Toxic

Q: And the Activity [21]?
A: Non-Toxic

Q: What about the Activity [22] of the same molecule?
A: Non-Toxic

Q: What about the IC50 [23] of the same molecule?
A: > 50000 nM
